Among the data in patent US6696439B1, “5-HT1F agonists” (Eli Lilly and Company, priority 1999, dated 2004) are melting point values, retold here.

The compound `CN(C)CCc1coc2ccc(NC(=O)c3ccc(F)cc3)nc12.O=C(O)C(=O)O` registered a melting point of 124 to 126 °C. For `CN(C)CCc1coc2ccc(NC(=O)c3ccccc3)nc12.O=C(O)C(=O)O` the value was 65 to 66 °C; for `Cc1oc2ccc(NC(=O)c3cccs3)nc2c1CCN(C)C.O=C(O)C(=O)O`, 211 to 212 °C; for `CCC(=O)Nc1ccc2oc(C)c(CCN(C)C)c2n1.O=C(O)C(=O)O`, 168 to 170 °C. For `Cc1oc2ccc(NC(=O)c3ccccc3)nc2c1CCN(C)C` the value was 119 to 120 °C.

As for `CCC(=O)Nc1ccc2occ(CCN(C)C)c2n1.O=C(O)C(=O)O`, the melting point was 153 to 155 °C. For `CN(C)CCc1coc2ccc(NC(=O)c3cccs3)nc12.O=C(O)C(=O)O` the value was 68 to 69 °C; for `Cc1oc2ccc(NC(=O)c3ccc(F)cc3)nc2c1CCN(C)C.O=C(O)C(=O)O`, 136 to 138 °C.

The term melting point denotes the temperature, or range, at which the solid turns liquid.
